Reference: the OPERA property sets (Mansouri et al. 2018)

Settings: for log10 BCF / log10 biotransformation half-life (days): fish

Cc1cccc(N(C)C)c1
boiling point: 212 °C

Nc1c(Cl)cc(Cl)cc1Cl
boiling point: 262 °C
melting point: 78.5 °C
ready biodegradability: not readily biodegradable
log10 BCF: 2
log10 biotransformation half-life (days): 0.67

CCOc1ccc(NC(N)=O)cc1
melting point: 174 °C

C=CCC1(C2C=CCCC2)C(=O)NC(=S)NC1=O (centres undefined)
melting point: 149 °C

CCCCN(CCCC)C(=O)COC(=O)c1ccccc1
melting point: 25 °C

COc1ccc(/C=N/NC(=O)c2ccncc2)cc1OC
melting point: 189 °C

C#CC(C)(C)NC(=O)c1ccc(F)cc1
log10 Koc (L/kg): 1.68

CCC(C)C(O)C(C)CC (centres undefined)
boiling point: 186 °C

Clc1cnc(Cl)c(Cl)c1
boiling point: 219 °C
melting point: 49 °C
ready biodegradability: not readily biodegradable

c1ccc2c(c1)CCCC2
boiling point: 208 °C
log10 biodegradation half-life (days): 0.903
log10 vapour pressure (mmHg): -0.434
melting point: -35.7 °C
ready biodegradability: not readily biodegradable
log10 BCF: 2.53
log10 biotransformation half-life (days): 0.75

Cc1cc(Br)cc([N+](=O)[O-])c1
boiling point: 270 °C
melting point: 83 °C

NC(=S)Nc1cccc2ccccc12
melting point: 198 °C

CC(C)C(C)C
boiling point: 57.9 °C
log10 vapour pressure (mmHg): 2.37
melting point: -129 °C

C=CCOc1c(Br)cc(C(C)(C)c2cc(Br)c(OCC=C)c(Br)c2)cc1Br
melting point: 119 °C

O=CC=Cc1ccc([N+](=O)[O-])o1
melting point: 118 °C

COc1c(Cl)c(Cl)c(Cl)c(Cl)c1Cl
melting point: 108 °C
log10 BCF: 4.16
log10 biotransformation half-life (days): 2.67

NC(=O)c1ccccc1N
boiling point: 300 °C

FC(F)C(F)(F)OCC(Cn1cncn1)c1ccc(Cl)cc1Cl (centres undefined)
log10 vapour pressure (mmHg): -5.87
melting point: 6 °C
log10 biotransformation half-life (days): 1.23

CCOC(=O)C#CC(=O)OCC
melting point: 1.5 °C

CCOC(=O)C(=Cc1ccccc1)C(=O)OCC
melting point: 32 °C

ClCC1CO1 (centres undefined)
boiling point: 117 °C
log10 Koc (L/kg): 1
log10 vapour pressure (mmHg): 1.22
melting point: -41.6 °C
ready biodegradability: not readily biodegradable

FC(F)(Br)C(F)(Cl)Br (centres undefined)
boiling point: 93 °C

ClCCOCOCCCl
boiling point: 218 °C
log10 Koc (L/kg): 1.79
log10 vapour pressure (mmHg): -0.879
melting point: -32 °C

CCCC(C)(O)CCC
boiling point: 161 °C
melting point: -82 °C

CCCCOCN(C(=O)CCl)c1c(CC)cccc1CC
log10 Henry constant (atm·m³/mol): -7.29
log10 Koc (L/kg): 2.86
log10 vapour pressure (mmHg): -5.54
melting point: -2.8 °C

COC(=O)c1ccccc1OC(C)=O
melting point: 51.5 °C

Brc1cc(Br)c(Oc2c(Br)cc(Br)c(Br)c2Br)c(Br)c1Br
log10 BCF: 5.3

c1ccc2c(c1)COC2
boiling point: 192 °C

O=[N+]([O-])c1cc(Cl)cc(Cl)c1O
melting point: 122 °C
ready biodegradability: not readily biodegradable
log10 BCF: 1.32

CN(C)C(=O)Nc1cccc(Cl)c1
log10 Koc (L/kg): 1.79

C=CC(C)=O
boiling point: 81.4 °C
log10 Henry constant (atm·m³/mol): -4.33
ready biodegradability: not readily biodegradable

CCOC(=O)CC(=O)c1ccc(OC)cc1
ready biodegradability: readily biodegradable

Cc1ccc(S(=O)(=O)c2coc(S(N)(=O)=O)c2)cc1
melting point: 185 °C

Cl.Nc1ccc(N=Nc2ccccc2)c(N)c1
melting point: 118 °C

Fc1ccc(-c2ccc(F)cc2)cc1
boiling point: 254 °C
melting point: 94.5 °C

COc1cccc(CO)c1O
melting point: 61.5 °C

Clc1cc(Cl)c(-c2c(Cl)cc(Cl)c(Cl)c2Cl)cc1Cl
melting point: 83 °C
log10 biotransformation half-life (days): 2.59

O=c1c(O)c(-c2ccc(O)c(O)c2)oc2cc(O[C@@H]3O[C@H](CO)[C@@H](O)[C@H](O)[C@H]3O)cc(O)c12
melting point: 248 °C

COc1cccc(CC(C)=O)c1
boiling point: 259 °C

O=C(OC[C@H]1O[C@@H](O)[C@H](O)[C@@H](O)[C@@H]1O)c1ccccc1
melting point: 121 °C

CCCCC(CC)CN1C(=O)C2C3C=CC(C3)C2C1=O (centres undefined)
log10 vapour pressure (mmHg): -4.74

CC(C)(N=C(O)C(Br)C(C)(C)C)c1ccccc1 (centres undefined)
melting point: 180 °C

C[C@]12CC[C@H](O)C[C@H]1CC[C@@H]1[C@@H]2CC[C@]2(C)[C@@H](C3=CC(=O)OC3)[C@@H](O)C[C@]12O
melting point: 234 °C

O=C[O-].[K+]
melting point: 167 °C

CCCCCC#CC(=O)O
melting point: 4 °C

CCC(CC)C(=O)OCCOCCOCCOC(=O)C(CC)CC
ready biodegradability: readily biodegradable

O=C(Oc1ccc2ccccc2c1)c1ccccc1O
melting point: 95.5 °C

Brc1cc2c(cc1Br)Oc1cc(Br)c(Br)cc1O2
log10 vapour pressure (mmHg): -8.32
melting point: 334 °C

Cc1cc(C)oc(=O)c1
boiling point: 245 °C
melting point: 51.5 °C

COc1ccccc1CO
boiling point: 249 °C

CCOCCN
boiling point: 108 °C

FC1(F)C(F)(F)C(F)(F)C1(F)F
boiling point: -5.9 °C
log10 vapour pressure (mmHg): 3.37
melting point: -40.1 °C

ClC=CCc1ccccc1
boiling point: 211 °C

O=S(=O)(Cl)c1cccs1
melting point: 28 °C

Clc1cc(Cl)c(Cl)nc1Cl
boiling point: 250 °C
melting point: 90.5 °C

CCCCC[C@H](O)/C=C/[C@H]1[C@H](O)CC(=O)[C@@H]1C/C=C\CCCC(=O)O
melting point: 67 °C

CCCCCCCCCCCCCCCCC=O
melting point: 36 °C

C=CC1CCC1C=C (centres undefined)
boiling point: 112 °C

c1ccc(COCc2ccccc2)cc1
boiling point: 298 °C
log10 vapour pressure (mmHg): -2.99
melting point: 3.6 °C
ready biodegradability: not readily biodegradable
log10 BCF: 2.43
log10 biotransformation half-life (days): 0.63

O=C(O)c1ccc(C(=O)O)s1
melting point: 359 °C

O=C(NC(=O)c1c(F)cccc1F)Nc1ccc(Cl)cc1
log10 Koc (L/kg): 3.83
log10 vapour pressure (mmHg): -9.05
melting point: 239 °C
log10 BCF: 2.2

CC(C)C1(C)N=C(c2nc3ccccc3cc2C(=O)O)NC1=O (centres undefined)
log10 Koc (L/kg): 1.3
melting point: 221 °C
ready biodegradability: not readily biodegradable

N#Cc1cc(F)c(F)c(F)c1F
boiling point: 164 °C

CCOC(=O)c1c(C)cc(O)cc1O
melting point: 132 °C

CCCCOC(=O)COc1ccc(Cl)cc1Cl
log10 vapour pressure (mmHg): -4.21

COB1OB(OC)OB(OC)O1
boiling point: 130 °C
melting point: 10 °C

CCOC(Cl)CCl (centres undefined)
boiling point: 145 °C

Clc1cccc(-c2cccc(Cl)c2Cl)c1
log10 Henry constant (atm·m³/mol): -3.8

Nc1cccc2cccnc12
melting point: 70 °C

O=C(C=Cc1ccccc1)OCc1ccccc1
boiling point: 350 °C
log10 vapour pressure (mmHg): -5
melting point: 39 °C

CCCCOC(C)=O
boiling point: 126 °C
log10 Henry constant (atm·m³/mol): -3.55
log10 Koa: 3.65
log10 vapour pressure (mmHg): 1.06
ready biodegradability: readily biodegradable

CCN(C(C)=O)c1ccccc1
boiling point: 260 °C
melting point: 55 °C

Clc1cccc(-c2c(Cl)ccc(Cl)c2Cl)c1Cl
log10 Koa: 8.8

Oc1c(Br)cc(Br)c2cccnc12
melting point: 196 °C

Cc1ccc(C)c([N+](=O)[O-])c1
boiling point: 240 °C
melting point: -25 °C

C=CC(O)CCCCCC (centres undefined)
boiling point: 194 °C

Brc1cc(Br)c(Br)c(Oc2c(Br)c(Br)c(Br)c(Br)c2Br)c1
log10 BCF: 5.68

CC(Cl)C(C)Cl (centres undefined)
boiling point: 118 °C
log10 vapour pressure (mmHg): 1.39
melting point: -80 °C

COc1cc(OC)nc(NC(=O)NS(=O)(=O)c2ncccc2C(F)(F)F)n1
melting point: 180 °C

COc1ccc(C=O)cc1O
melting point: 114 °C

CCCCCCCCCCCC(=O)OCC
boiling point: 271 °C
melting point: -10 °C

C=CCc1ccc2c(c1)OCO2
boiling point: 234 °C
log10 Koc (L/kg): 2.83
melting point: 11.2 °C

C=CCOC1=NS(=O)(=O)c2ccccc21
melting point: 138 °C
ready biodegradability: not readily biodegradable

CC=C(C)C(C)C(C)=O (centres undefined)
boiling point: 154 °C

CCCCCCCCC(Br)C(=O)O (centres undefined)
melting point: 4 °C

CCCCCCCCCCC1CCCC1
boiling point: 279 °C
melting point: -22 °C

C=C(NC(C)=O)C(=O)CCC(N)=O
melting point: 130 °C

O=C(O)c1ccc2c(c1)C(=O)c1ccccc1-2
melting point: 341 °C

NCCCN1CCOCC1
boiling point: 220 °C
melting point: -15 °C

Ic1cc(I)cc(I)c1
melting point: 184 °C

CCCCCCCCCCC/C=C\CCCCC(=O)O
melting point: 29.8 °C

CCCCOC(=O)c1ccc(N)cc1
melting point: 58 °C

COc1ccsc1CN(C(=O)CCl)c1c(C)cccc1C
log10 vapour pressure (mmHg): -6.68
melting point: 73 °C

c1ccc2c(c1)Cc1c-2ccc2ccccc12
boiling point: 405 °C
log10 Henry constant (atm·m³/mol): -4.58
log10 biodegradation half-life (days): 2.15
log10 vapour pressure (mmHg): -6.61
melting point: 190 °C

BrCCCBr
boiling point: 167 °C
log10 Henry constant (atm·m³/mol): -3.05
log10 vapour pressure (mmHg): 0.134
melting point: -34.2 °C
ready biodegradability: not readily biodegradable

O=C(O)c1ccc([N+](=O)[O-])cc1[N+](=O)[O-]
melting point: 182 °C

FC(F)(F)C(F)(F)C(F)(F)C(F)(F)C(F)(F)C(F)(F)C(F)(F)C(F)(F)C(F)(F)C(F)(F)C(F)(F)C(F)(F)C(F)(F)C(F)(F)C(F)(F)C(F)(F)C(F)(F)C(F)(F)C(F)(F)C(F)(F)C(F)(F)C(F)(F)C(F)(F)C(F)(F)F
melting point: 189 °C

Nc1cccc(F)c1
boiling point: 188 °C
melting point: -5 °C

CC(C)c1ccc(CO)cc1
boiling point: 249 °C
melting point: 28 °C
ready biodegradability: readily biodegradable

CCCCCOC(=O)CCC
boiling point: 186 °C
melting point: -73.2 °C

Fc1c(F)c(F)c(Br)c(Br)c1F
boiling point: 198 °C
melting point: 12 °C

CC1OC1C (centres undefined)
boiling point: 58.2 °C
melting point: -82.5 °C

O=S(=O)(c1ccc(Cl)cc1)c1ccc(Cl)cc1
melting point: 148 °C
ready biodegradability: not readily biodegradable

CCOCC(=O)Cl
boiling point: 125 °C

O=[N+]([O-])c1cccc2ccccc12
boiling point: 304 °C
log10 Henry constant (atm·m³/mol): -5.75
log10 vapour pressure (mmHg): -3.32
melting point: 61 °C

CCCCCCCC(C)CC (centres undefined)
boiling point: 188 °C
melting point: -92.9 °C

COC(=O)[C@@H](N)Cc1ccc(O)cc1
melting point: 137 °C

CN1CCCc2ccccc21
boiling point: 246 °C

Oc1ccc(O)c(-c2ccccc2)c1
melting point: 102 °C

ClC1=C(Cl)C2(Cl)C3C(Cl)C=CC3C1(Cl)C2(Cl)Cl (centres undefined)
boiling point: 310 °C
log10 Henry constant (atm·m³/mol): -3.53
log10 Koa: 7.64
log10 Koc (L/kg): 4.38
log10 vapour pressure (mmHg): -3.4
melting point: 95.5 °C
ready biodegradability: not readily biodegradable
log10 BCF: 3.94
log10 biotransformation half-life (days): 1.45

CCCCCCCCCCCCCCCCCCCCCCC
boiling point: 380 °C
log10 biodegradation half-life (days): 2.16
log10 vapour pressure (mmHg): -4.76
melting point: 47.6 °C
ready biodegradability: readily biodegradable

CCc1ccc([N+](=O)[O-])cc1
boiling point: 246 °C
melting point: -12.3 °C

CNC[C@H](O)c1ccc(O)c(O)c1
melting point: 212 °C

O=P1(NCCCl)OCCCN1CCCl (centres undefined)
melting point: 40 °C

CCc1ccc(Cc2ccccc2)cc1
boiling point: 297 °C
melting point: -24 °C

FC(Cl)CCl (centres undefined)
boiling point: 73.7 °C
melting point: -60 °C

N#CC(CCN1CCC(C(N)=O)(N2CCCCC2)CC1)(c1ccccc1)c1ccccc1
melting point: 150 °C

CC(CCc1ccccc1)NC(C)C(O)c1cc(I)c(O)c(I)c1 (centres undefined)
melting point: 212 °C

O=C1CCc2cccc3c2N1CC3
log10 vapour pressure (mmHg): -5.92
melting point: 112 °C

Cc1ccc(Sc2ccc(C)cc2)cc1
melting point: 57.3 °C
